Assays:
[1] = Plasma concentration in double transgenic rats after oral administration; type: in vivo, rat; conditions: 10 mg/kg oral
Procedure: FIG. 2 is a plot showing mean plasma concentrations of compound L-6a in transgenic rats over time following oral administration of 10 mg/kg of compound L-6a.
(§1) Experiments were conducted in 6-week-old double transgenic rats (dTGRs). The model has been described in detail earlier. […] The human angiotensinogen construct made up the entire human angiotensinogen gene (5 exons and 4 introns), with 1.3 kB of 5′-flanking and 2.4 kB of 3′-flanking sequences. The rats were purchased from RCC Ltd (Füllinsdorf, Switzerland). Radio telemetry transmitters were surgically implanted at 4 weeks of age. The telemetry system provided 24-h recordings of systolic, mean, diastolic arterial pressure (SAP, MAP, DAP, respectively) and heart rate (HR). Beginning on day 42, animals were transferred to telemetry cages. A 24 h telemetry reading was obtained. Rats were then dosed orally on the following 4 consecutive days (days 43-46). The rats were monitored continuously and allowed free access to standard 0.3%-sodium rat chow and drinking water.

[2] = tested on: double transgenic rats engineered to express human renin and human angiotensinogen; test: Blood pressure by telemetry in double transgenic rats; type: in vivo, rat; conditions: dosage of 10 mg/kg, oral
Procedure: Double Transgenic Rats: The efficacy of the renin inhibitors can also evaluated in vivo in double transgenic rats engineered to express human renin and human angiotensinogen (Bohlender J, Fukamizu A, Lippoldt A, Nomura T, Dietz R, Menard J, Murakami K, Luft F C, Ganten D. High human renin hypertension in transgenic rats. Hypertension 1997, 29, 428-434).
as §1

[3] = molecular target: T1, trypsin-activated recombinant human renin (Homo sapiens, UniProt P00797); test: Renin fluorescence assay (internally quenched peptide substrate); type: biochemical; conditions: compounds of Formula (XL)
T1 sequence (P00797 67-406): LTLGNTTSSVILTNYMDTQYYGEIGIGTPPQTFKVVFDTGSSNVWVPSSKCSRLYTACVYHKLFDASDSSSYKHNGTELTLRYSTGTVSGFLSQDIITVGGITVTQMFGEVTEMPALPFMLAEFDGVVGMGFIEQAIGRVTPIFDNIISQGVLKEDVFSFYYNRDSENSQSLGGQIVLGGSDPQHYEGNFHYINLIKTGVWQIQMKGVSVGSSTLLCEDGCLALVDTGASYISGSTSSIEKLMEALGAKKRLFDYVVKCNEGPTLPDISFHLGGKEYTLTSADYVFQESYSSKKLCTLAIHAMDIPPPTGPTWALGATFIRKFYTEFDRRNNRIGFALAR
Method in brief: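 Compounds (1 nM–10 μM final, DMSO) were mixed with internally quenched angiotensinogen-sequence substrate in pH 7.0 BES/NaCl/BSA buffer, then 0.2-2 nM trypsin-activated human renin added. Rate from the linear fluorescence increase (340 nm excitation, 495 nm emission) over 60-360 min at rt, compared with uninhibited control.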

[4] = molecular target: T2, plasma renin activity (PRA) in pooled mixed-gender human plasma (Homo sapiens, UniProt P00797); test: Plasma renin activity (PRA) assay in human plasma; type: biochemical; conditions: compounds of Formula (XL)
T2 construct: pooled mixed-gender human plasma stabilized with EDTA; from tissue; host or cells: pooled mixed-gender human plasma (EDTA)
T2 sequence (P00797 67-406): T1 sequence (P00797 67-406)
Procedure: Incubations mixtures contain in the final volume of 250 μL 95.5 mM N,N-bis(2-hydroxyethyl)-2-aminoethanesulfonic acid, pH 7.0, 8 mM EDTA, 0.1 mM neomycin sulfate, 1 mg/mL sodium azide, 1 mM phenylmethanesulfonyl fluoride, 2% DMSO and 87.3% of pooled mixed-gender human plasma stabilized with EDTA. For plasma batches with low PRA (less than 1 ng/ml/hr) ˜2 pM of recombinant human renin is added to achieve PRA of 3-4 ng/ml/hr. The cleavage of endogenous angiotensinogen in plasma is carried out at 37° C. for 90 min and the product angiotensin I is measured by competitive radioimmunoassay using DiaSorin PRA kit.

CNC[C@H](C[C@H]1CCCOC1)NC(=O)N1CCC[C@@H]([C@@H](OCCNC(=O)OC)c2cccc(Cl)c2)C1 [Example L-6a, methyl 2-((R)-(3-chlorophenyl)((R)-1-((S)-1-(methylamino)-3-((R)-tetrahydro-2H-pyran-3-yl)propan-2-ylcarbamoyl)-piperidin-3-yl)methoxy)-ethylcarbamate]
availability in rat's plasma following oral administration [1]: readily available in rat's plasma
metabolic stability [1]: excellent
oral bioavailability [1]: excellent
plasma concentration over 24 h period ([1]; over 24 h): remains relatively high
effect in lowering blood pressures of double transgenic rats [2]: significant effect in lowering blood pressures

CN[C@H](CNC(=O)N1CCC[C@@H]([C@@H](OCCNC(=O)OC)c2cccc(Cl)c2)C1)C[C@H]1CCCOC1 [XL-7, methyl 2-((R)-(3-chlorophenyl)((R)-1-((S)-2-(methylamino)-3-((R)-tetrahydro-2H-pyran-3-yl)propylcarbamoyl)piperidin-3-yl)methoxy)ethylcarbamate]
IC50 [3]: < 1 nM
effect in lowering blood pressures of double transgenic rats [2]: significant effect in lowering blood pressures
IC50 [4]: < 10 nM

Reference: patent US8487108B2, “Piperidinyl carbamate intermediates for the synthesis of aspartic protease inhibitors” (Vitae Pharmaceuticals, Inc., priority 2005, dated 2013)
